Patent publication US20220146526A1, “METHOD FOR EVALUATING SAMPLE, ANALYSIS METHOD, METHOD FOR DETECTING DEGRADED SAMPLE, MARKER FOR DETECTING DEGRADED BLOOD PLASMA SAMPLE, AND MARKER FOR DETECTING DEGRADED SERUM SAMPLE” (SHIMADZU CORPORATION, priority 2019, published 2022)

Key:
Assay type in all cases: physicochemical, human
[1] = GC/MS of blood plasma sample: time from blood collection to centrifugation (Table A); settings: blood collection to centrifugation; for Rate of increase or decrease: detection intensity relative to 1 at 15 minutes, after 12 hours; for Increase or decrease: detection intensity, after 12 hours vs 15 minutes
Experimental: (§1) At room temperature, 5 mL of blood from a healthy subject was taken into a blood-collecting vessel containing EDTA, and the blood-collecting vessel was inverted for mixing, then cooled, and allowed to stand at 4° C. Here, in order to investigate how the detection intensity of molecules contained in the sample was affected in a case where the time to cooling was set to 5 minutes or more as compared to that in a case where the time to cooling was set to 1 minute or less, preparations were performed under both the former condition and the latter condition. After standing, the blood sample was subjected to centrifugation under a condition of 4° C., 3000 rpm, and 15 minutes. […] After centrifugation, the blood-collecting vessel was left to stand at room temperature for 30 minutes, and the blood plasma was isolated during this 30 minutes. The obtained blood plasma sample was frozen and stored. Here, in order to investigate how the detection intensity of molecules contained in the sample was affected in cases where freezing and thawing was performed 4 times, 6 times, and 10 times after freezing as compared to that in a case where freezing and thawing was performed 2 times after freezing, freezing and thawing was performed under the respective conditions of 2, 4, 6, and 10 times.
(§2) Frozen blood plasma samples and serum samples were subjected to GC/MS or LC/MS. In GC/MS, the blood plasma samples and serum samples were subjected to methoxymation and trimethylsilylation and then introduced to GC-MS.
(§3) GC/MS was conducted using GCMS·TQ8040 (Shimadzu Corporation) that was a GC·MS equipped with AOC·20i (Shimadzu Corporation) as an autosampler.
(§4) Column: BPX5 (inner diameter of 0.25 mm, length of 30 m, and film thickness of 0.25 μm) (SGE)
(§5) Column temperature: maintained at 60° C. for 2 minutes, then raised at 15° C./min, and maintained at 330° C. for 3 minutes.
(§6) Inlet temperature: 250° C.
(§7) Carrier gas control mode: constant linear velocity of 39.0 cm/sec
(§8) Sample introduction method: split (split ratio of 30:1) Injection volume: 1 μL
(§9) Ionization method: electron ionization
(§10) Ionization current: 60 μA
(§11) Interface temperature: 280° C.
(§12) Ion source temperature: 200° C.
(§13) Mode: multiple reaction monitoring (MRM)
The rate of increase or decrease in Table A is the value of detection intensity relative to 1 that is the detection intensity in a case where the time from blood collection to centrifugation is set to 15 minutes.

[2] = GC/MS of serum sample: time from blood collection to centrifugation (Table G); settings: blood collection to centrifugation; for Rate of increase or decrease: detection intensity relative to 1 at 15 minutes, after 8 hours; for Increase or decrease: detection intensity, after 8 hours vs 15 minutes
Experimental: (§14) After standing, the blood sample was subjected to centrifugation under a condition of room temperature, 3500 rpm, and 5 minutes. […] After centrifugation, the blood-collecting vessel was left to stand at room temperature, and the serum was isolated during this time. Here, in order to investigate how the detection intensity of molecules contained in the sample was affected in cases where the time during which the blood-collecting vessel was left at room temperature was set to 1 hour and 6 hours as compared to that in a case where the time was set to 30 minutes, preparations were performed under the respective conditions of 30 minutes, 1 hour, and 6 hours. The obtained serum sample was frozen and stored. Here, in order to investigate how the detection intensity of molecules contained in the sample was affected in cases where freezing and thawing was performed 4 times, 6 times, and 10 times after freezing as compared to that in a case where freezing and thawing was performed 2 times after freezing, freezing and thawing was performed under the respective conditions of 2, 4, 6, and 10 times.
as §2, §3, §4, §5, §6, §7, §8, §9, §10, §11, §12, §13
The rate of increase or decrease in Table G is the value of detection intensity relative to 1 that is the detection intensity in a case where the time from blood collection to centrifugation is set to 15 minutes.

[3] = GC/MS of serum sample: time from centrifugation to isolation (Table H); parameters: key to Rate of increase or decrease / Rate of increase or decrease (first value, increase): detection intensity relative to 1 at 30 min centrifugation-to-isolation; settings: for Rate of increase or decrease: detection intensity relative to 1 at 30 minutes, after 1 hour; for Increase or decrease: detection intensity, after 1 hour vs 30 minutes
Experimental: as §14, §2, §3, §4, §5, §6, §7, §8, §9, §10, §11, §12, §13
The rate of increase or decrease in Table H is the value of detection intensity relative to 1 that is the detection intensity in a case where the time from centrifugation to isolation is set to 30 minutes.

[4] = LC/MS of blood plasma sample: time from blood collection to centrifugation (Table D)
Experimental: as §1, §2
(§15) Analysis column: Discovery HS F5-3 (inner diameter of 2.1 mm, length of 150 mm, film thickness of 3 μm) (Sigma-Aldrich)
(§16) Column temperature: 40° C.
(§17) (A) 0.1% formic acid (dissolved in water)
(§18) (B) 0.1% formic acid (dissolved in acetonitrile)
(§19) Flow velocity: 0.25 mL/min
(§20) Ionization method: electrospray
(§21) Temperature: • Desolvation Line (DL) temperature: 250° C. • Heat block temperature: 400° C. • Interface temperature: 300° C.
(§22) Gas flow rate: • Nebulizer gas flow rate: 3.0 L/min • Drying gas flow rate: 10.0 L/min • Heating gas flow rate: 10.0 L/min
as §13
The rate of increase or decrease in Table D is the value of detection intensity relative to 1 that is the detection intensity in a case where the time from blood collection to centrifugation is set to 15 minutes.

[5] = LC/MS of serum sample: number of times of freezing and thawing (Table M); parameters: key to Rate of increase or decrease: detection intensity relative to 1 at 2 freeze-thaw cycles
Experimental: as §14, §2, §15, §16, §17, §18, §19, §20, §21, §22, §13
The rate of increase or decrease in Table M is the value of detection intensity relative to 1 that is the detection intensity in a case where the number of times of freezing and thawing is set to 2 times.

[6] = GC/MS of blood plasma sample: number of times of freezing and thawing (Table C); settings: for Rate of increase or decrease: detection intensity relative to 1 at 2 times; for Increase or decrease: detection intensity
Experimental: as §1, §2, §3, §4, §5, §6, §7, §8, §9, §10, §11, §12, §13
The rate of increase or decrease in Table C is the value of detection intensity relative to 1 that is the detection intensity in a case where the number of times of freezing and thawing is set to 2 times.

[7] = GC/MS of serum sample: number of times of freezing and thawing (Table I); parameters: key to Rate of increase or decrease / Rate of increase or decrease (first value, increase): detection intensity relative to 2 freeze-thaw cycles = 1; settings: serum, GC/MS; for Rate of increase or decrease: detection intensity relative to 1 at 2 times; for Increase or decrease: detection intensity
Experimental: as §14, §2, §3, §4, §5, §6, §7, §8, §9, §10, §11, §12, §13
The rate of increase or decrease in Table I is the value of detection intensity relative to 1 that is the detection intensity in a case where the number of times of freezing and thawing is set to 2 times.

[8] = freezing and thawing 10 times vs 2 times
[9] = freezing and thawing 4 times vs 2 times

SMILES: CCCCCCCCCCCCCCCC(=O)O [Palmitic acid]
- Rate of increase or decrease [1]: 4.05
- Increase or decrease [1]: Increase

SMILES: CCCCCCCCCCCCCC(=O)O [Myristic acid]
- Rate of increase or decrease [1]: 1.55
- Increase or decrease [1]: Increase
- Rate of increase or decrease [2]: 1.30
- Increase or decrease [2]: Decrease

SMILES: O=C(O)C(O)Cc1ccc(O)cc1 (stereo not shown) [4-Hydroxyphenyllactic acid]
- Rate of increase or decrease [1]: 1.33
- Increase or decrease [1]: Increase
- Rate of increase or decrease [3]: 0.64
- Increase or decrease [3]: Decrease

SMILES: N[C@@H](Cc1c[nH]c2ccccc12)C(=O)O [Tryptophan]
- Increase or decrease ([4]; detection intensity, blood collection to centrifugation, after 12 hours vs 15 minutes): Different from individual
- Rate of increase or decrease (second value, decrease) ([4]; different from individual to individual, individuals with decrease, relative to 1 at 15 minutes, collection to centrifugation, after 12 hours): 0.66
- Rate of increase or decrease (first value, increase) ([4]; different from individual to individual, individuals with increase, relative to 1 at 15 minutes, collection to centrifugation, after 12 hours): 1.62
- Rate of increase or decrease ([5]; 6 times of freezing and thawing, detection intensity relative to 1 at 2 times): 0.66
- Number of times when compound is affected ([5]; serum sample, LC/MS, detection intensity changed by 30% or more vs 2 times of freezing and thawing): 6 times
- Increase or decrease ([5]; serum sample, LC/MS, detection intensity vs 2 times of freezing and thawing): Decrease

SMILES: O[C@H]1[C@H](O)[C@@H](O)[C@H](O)[C@@H](O)[C@@H]1O [Scyllo-inositol]
- Rate of increase or decrease ([6]; freezing and thawing 6 times): 0.68
- Increase or decrease ([6]; freezing and thawing 6 times vs 2 times): Decrease
- Rate of increase or decrease [2]: 0.66
- Increase or decrease [2]: Decrease

SMILES: CCCCC/C=C\C/C=C\CCCCCCCC(=O)O [Linoleic acid]
- Rate of increase or decrease [1]: 1.34
- Increase or decrease [1]: Increase

SMILES: NCCc1c[nH]c2ccccc12 [Tryptamine]
- Rate of increase or decrease ([6]; freezing and thawing 10 times): 0.69
- Increase or decrease [6, 8]: Decrease

SMILES: CC(CN)C(=O)O (stereo not shown) [3-Aminoisobutyric acid]
- Rate of increase or decrease [1]: 1.44
- Increase or decrease [1]: Increase
- Rate of increase or decrease ([7]; freezing and thawing 10 times): 1.47
- Increase or decrease [7, 8]: Increase

SMILES: OB(O)O [Boric acid]
- Rate of increase or decrease ([6]; freezing and thawing 4 times): 1.56
- Increase or decrease [6, 9]: Increase
- Rate of increase or decrease [3]: 2.06
- Increase or decrease [3]: Increase
- Rate of increase or decrease ([7]; freezing and thawing 4 times): 0.63
- Increase or decrease [7, 9]: Decrease
